Results on 16 compounds are retold here after patent US20040087653A1, “Methods for the treatment of respiratory diseases and conditions with a selective iNOS inhibitor and a PDE inhibitor and compositions therefor” (priority 2002, published 2004).

Where a name gives a salt, the structure may show the parent alone. Read-outs that look alike come from different tables or passages of the source. A value given as a limit tells only on which side of the number the result lay.

The test system of series [1] is nitrite production in human cartilage explants. Put plainly: Human cartilage explant assay (IL-1 induced nitrite production). The class given is cell-based. As to conditions: inhibition of nitrite production, IL-1 stimulated explants. As to the method: Bone pieces are rinsed twice with Dulbecco's Phosphate Buffered Saline (GibcoBRL) and once with Dulbecco's Modified Eagles Medium (GibcoBRL) and placed into a petri dish with phenol red free Minimum Essential Medium (MEM) (GibcoBRL). Cartilage was cut into small explants of approximately 15-45 mg in weight and one or two explants per well are placed into either 96 or 48 well culture plates with 200-500 μL of culture media per well. The culture media was either a custom modification of Minimum Essential Medium(Eagle) with Earle's salts (GibcoBRL) prepared without L-Arginine, without L-Glutamine and without phenol red or a custom modification of serumless Neuman and Tytell (GibcoBRL) medium prepared without L-arginine, without insulin, without ascorbic acid, without L-glutamine and without phenol red. Both are supplemented before use with 100 μM L-Arginine (Sigma), 2 mM L-glutamine, 1× HL-1 supplement (BioWhittaker), […] ascorbic acid (Sigma) and 150 pg/ml recombinant human IL-1[…] (RD Systems) to induce nitric oxide synthase. Compounds are then added in 10 μL aliquots and the explants incubated at 37° C. with 5% CO2 for 18-24 hours. The day old supernatant is then discarded and replaced with fresh culture media containing recombinant human IL-1β and compound and incubated for another 20-24 hours. […] All samples are done in quadruplicate. Unstimulated controls are cultured in media in the absence of recombinant human IL-1 □. IC50 values (Table II) are determined from plotting the percent inhibition of nitrite production at six different concentrations of inhibitor.

For series [2], the target named is i-NOS (Homo sapiens, UniProt P35228). Put plainly: i-NOS inhibition, comparison with NIL amides.
Series [3] relates to LPS-induced increase in plasma nitrite/nitrate levels. The experiment in a line: In vivo assay: plasma nitrite/nitrate in endotoxin-treated rats. Conditions: oral administration, plasma nitrite/nitrate 5 hours post-treatment. As to the method:
Plasma nitrite/nitrate levels can be determined 5 hours post-treatment.

In series [4] the test system is exhaled NO. As to conditions: high doses; cited from earlier work.
Where [5] appears, read: Rattus norvegicus, read-out: ED50.

Sequence of i-NOS (P35228 whole entry): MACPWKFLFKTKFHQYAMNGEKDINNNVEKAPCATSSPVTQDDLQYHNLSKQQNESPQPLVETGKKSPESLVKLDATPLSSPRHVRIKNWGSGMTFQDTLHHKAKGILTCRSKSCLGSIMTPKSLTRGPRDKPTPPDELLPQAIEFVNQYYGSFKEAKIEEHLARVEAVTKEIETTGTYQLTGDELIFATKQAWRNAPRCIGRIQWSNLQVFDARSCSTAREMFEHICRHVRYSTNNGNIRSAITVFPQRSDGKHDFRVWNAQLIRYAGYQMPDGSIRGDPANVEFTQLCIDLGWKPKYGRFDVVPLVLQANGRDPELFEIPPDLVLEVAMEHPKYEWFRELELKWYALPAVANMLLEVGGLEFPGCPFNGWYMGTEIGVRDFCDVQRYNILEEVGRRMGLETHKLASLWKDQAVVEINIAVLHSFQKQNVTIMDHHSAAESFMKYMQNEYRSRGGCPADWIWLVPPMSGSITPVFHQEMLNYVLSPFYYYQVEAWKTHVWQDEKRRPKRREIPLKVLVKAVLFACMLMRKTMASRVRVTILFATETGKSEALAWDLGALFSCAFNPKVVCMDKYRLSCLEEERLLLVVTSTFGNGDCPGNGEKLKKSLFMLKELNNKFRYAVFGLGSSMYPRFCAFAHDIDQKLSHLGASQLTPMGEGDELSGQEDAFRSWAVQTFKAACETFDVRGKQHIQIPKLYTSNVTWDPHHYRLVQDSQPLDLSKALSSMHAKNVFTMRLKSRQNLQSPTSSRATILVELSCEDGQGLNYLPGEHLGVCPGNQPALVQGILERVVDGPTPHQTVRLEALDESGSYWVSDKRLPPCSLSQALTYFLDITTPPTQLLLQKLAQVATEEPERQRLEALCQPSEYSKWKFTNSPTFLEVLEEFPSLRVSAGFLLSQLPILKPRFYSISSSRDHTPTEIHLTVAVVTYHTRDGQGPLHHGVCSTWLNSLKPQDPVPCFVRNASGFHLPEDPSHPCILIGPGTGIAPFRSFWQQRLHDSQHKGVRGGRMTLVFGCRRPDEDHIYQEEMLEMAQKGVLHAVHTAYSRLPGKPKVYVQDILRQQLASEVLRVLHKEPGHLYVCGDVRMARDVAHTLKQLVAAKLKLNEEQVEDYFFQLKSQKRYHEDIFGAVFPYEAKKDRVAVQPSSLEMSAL

A word on the IC50: it is the concentration at which inhibition is half-maximal. A higher IC50 goes with a need for much substance. For the compound `CC(=N)NCC(F)=CCC[C@H](N)C(=O)O` (mixture of isomers) [Example B, (2S,5E/Z)-2-amino-6-fluoro-7-[(1-iminoethyl)amino]-5-heptenoic acid, dihydrochloride], the IC50 in series [1] (Homo sapiens) is 0.2 µM.
As to `CC(=N)NCCCC[C@H](N)C(=O)Nc1nnn[nH]1` [Example 1, 2S-amino-6-[(1-iminoethyl)amino]-N-(1H-tetrazol-5-yl)hexanamide, hydrate, dihydrochloride], in series [2], the “selectivity compared with NIL amide or NIL dimethylamide” value was “more selective”.
In general, ED50 refers to the dose that gives a 50% effect, or the effect in half of the subjects. In the case of `CC(=N)NC/C(F)=C\CC[C@H](N)C(=O)O` [Example A, (2S,5E)-2-amino-6-fluoro-7-[(1-iminoethyl)amino]-5-heptenoic acid, dihydrochloride], the ED50 in series [3] (setting [5]) and in series [3] (dihydrochloride) was less than 0.1 mg/kg throughout. The compound also gave an IC50 in series [1] (Homo sapiens) of 0.1 µM.
For `CC(=N)NC/C(F)=C/CC[C@H](N)C(=O)O` [Example D, (2S,5Z)-2-amino-6-fluoro-7-[(1-iminoethyl)amino]-5-heptenoic acid, trihydrochloride, dihydrate], the ED50 in series [3] (setting [5]) is greater than 10 mg/kg. The compound further registered an IC50 in series [1] (Homo sapiens) of 2.5 µM.
One may read the melting point as the temperature, or range, at which the solid turns liquid. On to `CC(=NO)NC/C(F)=C\CC[C@H](N)C(=O)O` [Example G, (2S,5E)-2-amino-6-fluoro-7-[(1-hydroximinoethyl)amino]-5-heptenoic acid], for which the melting point was 198 to 200 °C. In addition, in series [3] (setting [5]), the ED50 was less than 0.1 mg/kg.
`CC(=N)NC/C(F)=C\CC[C@H](N)C(=O)Nc1nnn[nH]1` [Example H, (2S,5E)-2-amino-6-fluoro-7-[(1-iminoethyl)amino]-N-(1H-tetrazol-5-yl) 5-heptenamide, dihydrochloride]: in series [3] (setting [5]), the median effective dose (ED50) is less than 0.3 mg/kg.
As to `CC(=N)NC/C(F)=C\CC[C@](C)(N)C(=O)O.Cl.Cl` [Example HH, (2S,5E)-2-amino-2-methyl-6-fluoro-7-[(1-iminoethyl)amino]-5-heptenoic acid, dihydrochloride], the ED50 in series [3] (setting [5]) turned out to be 0.4 mg/kg. The compound further showed an IC50 in series [1] (Homo sapiens) of 0.4 µM.
With `COC[C@](N)(CSCCNC(C)=N)C(=O)O` [Example J, 2-[[[2-[(1-Iminoethyl)amino]ethyl]thio]methyl]-O-methyl-D-serine, dihydrochloride], the half-inhibitory concentration (IC50) in series [1] turned out to be 8.2 µM.
For `CC(=N)NC/C=C\CC[C@](C)(N)C(=O)O.Cl.Cl` [Example LL, (2S,5Z)-2-amino-2-methyl-7-[(1-iminoethyl)amino]-5-heptenoic acid, dihydrochloride], in series [3] (setting [5]), the median effective dose (ED50) turned out to be 0.3 mg/kg. In addition, the half-inhibitory concentration (IC50) in series [1] (Homo sapiens) worked out at 0.8 µM.
In the case of `N=C1CCCC[C@H](CCCC[C@@H](N)C(=O)O)N1` [Example V, (α,2S)-.α-aminohexahydro-7-imino-1H-azepine-2-hexanoic acid, trihydrate hydrochloride], in series [3] (setting [5]), the ED50 is less than 3 mg/kg. The IC50 in series [1] (Homo sapiens) is less than 10 µM.
Compound `N=C1CCCC[C@@H](CCCC[C@H](N)C(=O)O)N1` [Example W, (αS,2R)-α-aminohexahydro-7-imino-1H-azepine-2-hexanoic acid, trihydrate hydrochloride] yielded an IC50 in series [1] (Homo sapiens) greater than 30 µM.
Turning to `N=C1CCCC[C@H](CCCC[C@H](N)C(=O)O)N1` [Example X, (αS,2S)-α-aminohexahydro-7-imino-1H-azepine-2-hexanoic acid, trihydrate hydrochloride], in series [1], the concentration for half-maximal inhibition (IC50) was less than 10 µM.
As to `Cl.N=C1CCCC[C@H](CCCC[C@@H](N)C(=O)O)N1.O.O.O` [Example Y, (αR,2S)-α-aminohexahydro-7-imino-1H-azepine-2-hexanoic acid, trihydrate hydrochloride], the median effective dose (ED50) in series [3] (setting [5]) is less than 3 mg/kg.
Consider `N=C1CCCC[C@H](CCCC[C@H](N)C(=O)O)N1` [Example Z, (αS,2S)-α-aminohexahydro-7-imino-1H-azepine-2-hexanoic acid, trihydrate hydrochloride], for which the half-maximal inhibitory concentration (IC50) in series [1] (Homo sapiens) is less than 10 µM.
For `COC(=O)[C@@H](N)CCCNC(=N)N[N+](=O)[O-]` [L-NAME], the “inhibition of exhaled NO” value in series [4] is reported as “approximately 70%”.
Consider `N=C(N)NN` [amino-guanidine], for which the “inhibition of exhaled NO” value in series [4] is recorded as “approximately 70%”.
